Assay results published in patent US20210308028A1, “Compositions and Methods for Maintaining and Protecting Tissue Integrity and Barrier Function” (Colgate-Palmolive Company, priority 2020, published 2021).
Where a name gives a salt, the structure may show the parent alone.

Experiments:
[1] = system: gingival keratinocyte barrier; conditions: previously reported; cited from earlier work
[2] = system: Mattek Epigingival tissues; assay: TER of Epigingival tissues upon sodium lauryl sulfate (SLS) challenge; format: cell-based, human
Excerpt: Cell junctions are intercellular pathways that selectively permit the movement of molecules through cellular layers. In terms of biological function, cell junctions form a barrier between apical and basolateral cell surfaces and are crucial in the development and function of epithelial tissues. The ion permeability of cell junctions can be measured through a voltmeter in the form of Trans Epithelial Electric Resistance (TER). Measurements are quickly determined through an electrode with little to no disturbance to the cell layers. The resistance correlates to the integrity of the tissue, and confluent tissue layers with intact cell junctions lead to higher TER readings.
Epigingival tissues were purchased from Mattek Corporation for use in the experiment. These multilayered epithelial cells imitate human gingival tissue in-vivo and can withstand high concentrations of toothpaste solutions. Once the tissues arrived in the laboratory, individual tissues were reconstituted in 1 mL of Mattek provided GIN-100 maintenance medium overnight at 37° C. and 5% CO2 before testing of samples. The medium was changed every day after treatment.
TER measurement experiment was performed comparing the neat active ingredients in solution and their effects on the physical integrity of Mattek Epigingival tissues. […]

[3] = system: intestinal mucosal barrier; conditions: reported; cited from earlier work
[4] = system: in vitro oral mucosa model; conditions: Rybakovsky 2017; cited from earlier work
[5] = system: intestinal epithelial barrier; conditions: Sarkar 2019; in vivo (mouse) and in vitro models; cited from earlier work
[6] = system: P. gingivalis collagenase; assay: Proteolytic assay: collagen DQ degradation by P. gingivalis culture supernatant; format: biochemical, Porphyromonas gingivalis; conditions: Example 6, FIGS. 35, 38, 41; over 5 hours
Description: To determine the effects of formulations tested on the proteinase activity of P. gingivalis, a 48-h culture was centrifuged at 10 000×g for 10 min. […] The fluorescence corresponding to collagen degradation was monitored using a Synergy 2 microplate reader, with the excitation and emission wavelengths set at 495 nm and 525 nm, respectively. Test compounds or the fluorescent substrate alone were used as controls. For the proteolytic assay, the following ratio was used: 40% P. gingivalis supernatant+40% test compounds+20% DQ collagen. […]
To determine the effects of the Dual Zinc plus Arginine aqueous solution and dentifrice on the proteinase activity of P. gingivalis, a 48-h culture was centrifuged at 10 000×g for 10 min. Assay mixtures containing equal volumes of P. gingivalis culture supernatant, the fluorescent substrate collagen DQ™ (100 μg/mL; Molecular Probes, Eugene, Oreg., USA), and the Dual Zinc […] The fluorescence corresponding to collagen degradation was monitored using a Synergy 2 microplate reader, with the excitation and emission wavelengths set at 495 nm and 525 nm, respectively. Test compounds or the fluorescent substrate alone were used as controls. Leupeptin (1 μM) was used as a positive inhibitory control.

[7] = system: B11 gingival keratinocytes treated with TNF-α; assay: FITC-dextran paracellular transport with TNF-α challenge; format: cell-based, human; conditions: TNF-α 100 ng/ml, 48-h exposure
Description: The ability of test composition samples to enhance epithelial barrier integrity was assessed by monitoring the paracellular transport of FITC-conjugated 4.4-kDa dextran (FD-4; Sigma-Aldrich Canada Ltd.) across the keratinocyte layer. Briefly, B11 cells were cultured on Transwell filters, and FD-4 ([…] in culture medium) was added in the apical compartment in the presence of the test composition under investigation. Fluorescence in the basolateral compartment was measured at 0, 4, 8, 24, and 48 h using a Synergy 2 microplate reader (BioTek Instrument, Winooski, Vt., USA).
(§1) Assays exposed cells to either TNFα only or TNFα+test composition. TNFα is known to cause tissue damage. A stock solution of recombinant TNF-α is prepared in sterile distilled water at 100 μg/ml. Thereafter, dilutions are made in keratinocyte culture medium. First dilution is 1/1000 to obtain 100 ng/ml. TNF-α and the test compounds are added simultaneously.
Gingival keratinocytes were cultured in the apical chamber of Transwell™ inserts as described above. Immediately after adding fluorescein isothiocyanate-conjugated dextran of 4.4 kDa (FD-4; 1 mg/ml in culture medium) to the apical compartment, the formulations under investigation were added in presence of recombinant TNF-α (100 ng/ml). Fluorescence in the basolateral compartment was recorded after 0, 2, 6, 24, and 48 h of incubation using a Synergy 2 microplate reader (BioTek Instruments; Winooski, Vt., USA).

[8] = system: B11 gingival keratinocytes treated with TNF-α; assay: TER with TNF-α challenge; format: cell-based, human; conditions: TNF-α 100 ng/ml
Description: Tight junction integrity was assessed by determining the trans-epithelial electrical resistance (TER). B11 gingival keratinocytes were seeded onto Costar™ Transwell™ clear polyester membrane inserts (6.5-mm diameter; 0.4-μm pore size; Corning Co., Cambridge, Mass., USA) at 3×10^5 cells per insert. The basolateral and apical compartments were filled with 0.6 mL and 0.1 mL of complete K-SFM, respectively. Following a 72-h incubation, the conditioned medium was replaced with antibiotic-free K-SFM, and the cells were incubated for a further 16 h. The TER values were measured using an Ohm/voltmeter (EVOM2; World Precision Instruments, Sarasota, Fla., USA) at 0, 4, 8, 24, 48, and 72 h. Resistance values were calculated in Ohms (Ω)/cm 2 by multiplying the resistance values by the filter surface area. Results were expressed as percentage of the basal control values measured at time 0 h (100% values) for each condition.
as §1
Keratinocyte barrier integrity was determined by monitoring transepithelial electrical resistance (TER). Briefly, keratinocytes (3×10^5 cells per insert; 0.1 ml) were seeded in the apical compartment of Costar™ Transwell™ clear polyester membrane inserts (6.5 mm in diameter, 0.4 μm pore size; Corning Co., Cambridge, Mass., USA), while the basolateral compartment was filled with 0.6 ml of culture medium. After 72-h of incubation, the conditioned culture medium was replaced with fresh antibiotic-free K-SFM, and the cells were further incubated for 16 h prior treating the cells. Recombinant human TNF-α (100 ng/ml; AnaSpec, Fremont, USA) and the formulations (final dilutions of 1/500, 1/1000, and 1/2000 (v/v for the aqueous solution; w/v for the dentifrice) under investigation were added to the apical compartment. The TER values were monitored using an ohm/voltmeter (EVOM^2; World Precision Instruments, Sarasota, Fla., USA) after 0, 6, 24, and 48 h of incubation. The TER values in Ohms (Ω)/cm^2 were determined by multiplying the resistance values by the surface area of the membrane filter. Results are expressed as the percentage of the basal control value measured at time 0-h (100% value).

gingival keratinocytes [9] = assay: Keratinocyte proliferation (CellTracker Green CMFDA); format: cell-based, human; conditions: TNF-α 100 ng/ml
Description: Gingival keratinocytes were seeded into wells (20,000 cells per well) of a 96-well microplate (0.1 ml/well) and incubated overnight at 37° C. in a 5% CO2 atmosphere to allow cell adhesion. The culture medium was then removed, and the cells were treated or not with TNF-α (100 ng/ml) with or without the formulations under investigation for 72 h at 37° C. in a 5% CO2 atmosphere. Cell proliferation was measured using the fluorescent CellTracker™ Green CMFDA (5-chloromethylfluorescein diacetate) Dye according to the manufacturer's instructions (Thermo Fisher Scientific). Untreated control cells were assigned a value of 100%. Briefly, after 24 h of stimulation, the supernatant was removed and the cells were washed with PBS. […] Fluorescent keratinocytes were also visualized using an inverted Olympus FS X100 fluorescent microscope.

gingival keratinocytes [10] = assay: MTT colorimetric cell viability assay; format: cell-based, human
Description: The tight junction integrity of the B11 gingival keratinocytes was assessed by determining the transepithelial electrical resistance (TER). Briefly, B11 keratinocytes were seeded onto Costar™ Transwell™ clear polyester membrane inserts (6.5-mm diameter; 0.4-μm pore size; Corning Co., Cambridge, Mass., USA) at 3×10^5 cells per insert. The basolateral and apical compartments were filled with 0.6 mL and 0.1 mL of complete K-SFM, respectively, and the cultures were incubated for 3 days at 37° C. in a 5% CO2 atmosphere. The conditioned medium was then replaced with fresh antibiotic-free K-SFM. Following a further incubation (16 h), the TER values were measured using an Ohm/voltmeter (EVOM2; World Precision Instruments, Sarasota, Fla., USA) at 0, 2, 6, 24, and 48 h. Resistance values were calculated in Ohms (Ω)/cm^2 by multiplying the resistance values by the filter surface area. Results were expressed as a percentage of the basal control values measured at time 0 h (100% values) for each condition. […] The effect of these treatments on cell viability was assessed using an MTT (3-[4,5-[…]-2-yl]-2,5diphenyltetrazolim bromide) colorimetric assay, according to the manufacturer's instructions (Roche Diagnostics, Laval, QC, Canada).

In the case of epigallocatechin-3-gallate, the “protection of gingival keratinocyte barrier against TNF-α-induced damage” value (from here on “protection … against TNF-α-induced damage”) [1] is listed as “prevented epithelial barrier disruption”.
In the case of `N=C(N)NCCC[C@H](N)C(=O)O` [Arginine, arginine], the “effect on SLS-induced increase in tissue permeability (TER ratio)” value ([2]; tissues treated 3x over 3 days, then 0.5% SLS for 2 minutes, FIGS. 1-4) is given as “minimal effect” and the “intestinal mucosal barrier functions” value [3] is given as “improve the intestinal mucosal barrier functions”.
In the case of `[Zn]` [zinc], the “epithelial barrier function (transepithelial electrical resistance)” value [4] is listed as “improve epithelial barrier function” and the “protection of intestinal epithelial barrier from Shigella flexneri” value [5] is listed as “allows protection of the intestinal epithelial barrier from damage mediated by the pathogen Shigella flexneri”.
For theaflavins, the “protection … against TNF-α-induced damage” value [1] is given as “prevented epithelial barrier disruption”.
In the case of `CCCCCCCCCCCCOS(=O)(=O)[O-].[Na+]` [SLS, Sodium Lauryl Sulfate, reference compound], the “tissue permeability after SLS treatment” value ([2]; 0.5% SLS solution for 2 minutes) is reported as “increase in tissue permeability”.
With `CC(=O)N[C@@H](CC(C)C)C(=O)N[C@@H](CC(C)C)C(=O)N[C@H](C=O)CCCNC(=N)N` [Leupeptin, reference compound] the “inhibition of P. gingivalis collagenase activity” value [6] was “inhibited P. gingivalis collagenase activity”.
In the case of TNF-α, the “increase of FD-4 transport by TNF-α” value [7] is reported as 50.8%, the “decrease of TER by TNF-α” value ([8]; 6 h) is reported as 25.8% and the “decrease of TER by TNF-α” value ([8]; 24 h) is reported as 49.3%. The “decrease of TER by TNF-α” value ([8]; 48 h) was 85.1%, the “reduction of cell proliferation by TNF-α” value (gingival keratinocytes [9]) was 30.2% and the “viability of gingival keratinocytes (MTT)” value (gingival keratinocytes [10]) was “no significant loss of cell viability”.
In the case of `Nc1nc(N)nc(-c2cc(Cl)ccc2Cl)n1` [irsogladine maleate], the “protection … against TNF-α-induced damage” value [1] is given as “reversed the TNF-α-induced disruption of the gingival epithelial barrier”.
